Series [1] is described as follows: DPPH assay (free-radical scavenging). As to conditions: for DPPH free-radical scavenging: amount of antioxidant (in mg) needed to inhibit 1 mmol of DPPH; for AE (×10^−3): anti-free-radical efficiency from EC50 and TEC50; for TEC50: reaction time necessary to achieve EC50; for antioxidative action (DPPH test), in words: comparison with vitamin C. The series is classed as biochemical. On the procedure: In the presence of a free-radical scavenger, the electron is paired, the absorption disappears, and the decoloration proceeds stoichiometrically taking into account the electrons taken up. The absorbance is measured in a photometer, The anti-free-radical property of the substance to be tested is determined by measuring the concentration at which 50% of the 2,2-diphenyl-1-picrylhydrazyl employed has reacted with the free-radical scavenger. This concentration is expressed as EC50, a value which can be considered to be a property of the substance under the given measurement conditions. […] The EC50 value here is a measure of the capacity of the respective compound to scavenge free radicals. The lower the EC50 value, the higher the capacity to scavenge free radicals. […] A further important aspect for the action of the antioxidants is the time in which this EC50 value is reached. This time, measured in minutes, gives the TEC50 value, which allows a conclusion to be drawn on the rate at which these antioxidants scavenge free radicals. The anti-free-radical efficiency (AE) (described in C. Sanchez-Moreno, J. A. Larrauri and F. Saura-Calixto in J. Sci. […] Aliquots of this solution are mixed with various concentrations of the compound to be tested. […] The lower this value, the higher the corresponding antioxidant activity. The reaction time necessary to achieve this value is indicated in the value TEC50 (in minutes). The anti-free-radical efficiency (AE) is obtained from this in accordance with the following relationship: [formula] A higher AE value here indicates a higher activity against free radicals.

Series [2] is described as follows: Rancimat assay (oxidation stability of soya oil). The conditions noted are these: for Protection factor: 0.1% by weight in 4 g of soya oil at 120° and 15 l of air/h. The source says:
The Rancimat method for determination of the oxidation stability of fats and oils is known from the literature (Läubli M. W., Bruttel P. A.: “Determination of the oxidation stability of fats and oils—comparison between the active oxygen method (AOCS Cd 12-57) and the Rancimat method”, Fat. Sci. Technol. 90; 56-58 (1988); or Metrohm “Application Bulletin” Metrohm, No. 232/1 d, “Determination of the antioxidant activity by the Rancimat method”; handbook: “Rancimat 679”, Metrohm, instrument for the determination of oxidation and thermal stability, use instructions 8.679.1001, Metrohm AG, CH-9100 Herisau (Switzerland)).

Series [3] can be described thus: Time dependence of the antioxidative activity (DPPH test after storage). As to conditions: 1 mol % solution in EtOH:H2O 1:1, storage for 90 days at 40° C. (The DPPH test is a chemical assay of radical scavenging.)
A short description of series [4]: Lipid assay (ABAP-induced oxidation of linoleic acid in SDS micelles). The series is classed as biochemical. The conditions noted are these: for Standardised to tocopherol (relative antioxidative efficiency, RAE): % inhibition standardised to tocopherol; for AE/20 min: absorbance change at 236 nm, Reference 0.4567; for % inhibition: inhibition of linoleic acid oxidation versus reference; for Lipid test: comparative experiment, standardised to tocopherol. Here is the method: ABAP, which is water-soluble per se, is dispersed in SDS micelles. Linoleic acid (cis,cis-9,12-octadecadienoic acid) is likewise dispersed in SDS micelles. The free radicals cause the oxidation of linoleic acid to the isomer having conjugated double bonds. The formation of the conjugated double bond can be determined through the increase in the absorbance at 236 nm. The ability of the antioxidant to inhibit the rate of formation is determined relative to the tocopherol standard (in accordance with: Pryor, W. A., Cornicelli, […]., & Wu, M. (1993) A rapid screening test to determine the antioxidant potencies of natural and synthetic antioxidants. J Org Chem, 58, 3521-3532).

A further series concerns the target tyrosinase. As to the kind of experiment: Tyrosinase activity test with substrate L-tyrosine. In kind it is biochemical. As to conditions: tyrosinase 10 units, L-tyrosine 4 mM, 37° C., 1 hour, OD 450 nm. Here is the method:
Tyrosinase is the key enzyme in the synthesis of melanin. Substances which inhibit tyrosinase activity are therefore suitable as skin-lightening active ingredients. The action is also investigated with L-tyrosine as substrate and compared with that of reference substances. The substances and tyrosinase (10 units) are pre-incubated on ice for 10 minutes; tyrosine is then added (final concentration 4 mM), and the plates are incubated at 37° C. for 1 hour. The optical density at each test point is measured at 450 nm against the corresponding control without enzyme.

Series [5] is described as follows: Hypoxanthine-xanthine oxidase test (superoxide scavenging, NBT reduction). The series is classed as biochemical. As to conditions: value at which 50% of the original superoxide free-radical anion concentration is still present. Here is the method:
Superoxide Free-Radical Anion Scavenging Efficiency of ASG I (Hypoxanthine-Xanthine Oxidase Test) Reaction of fresh xanthine oxidase with hypoxanthine in the presence of EDTA in aqueous solution gives superoxide free-radical anions. The free-radical anions are determined spectrophotometrically via the reduction of nitroblue tetrazolium (NBT) to nitroblue diformazan. The reduction is evident from the […] in the absorption band at 560 nm. […] The IC50 is the value at which 50% of the original superoxide free-radical anion concentration is still present. The lower this value, the higher the corresponding antioxidant activity.

Series [6] in a line: TEAC assay (ABTS radical cation decolorisation). In kind it is biochemical. As to conditions: comparative experiment with starting substances. On the procedure:
This free-radical cation has absorption maxima at 645 nm, 734 nm and 815 nm. The addition of an antioxidant to the ABTS free-radical cation results in reduction to ABTS. The magnitude of this conversion depends on the activity and concentration of the antioxidant and on the duration of the reaction. The reduction is evident from the decrease in absorbance, and the percentage of reduced ABTS is determined as a function of concentration and time and calculated relative to the reactivity of trolox (TEAC). […] This method can be used for the determination of antioxidants which are soluble in water or organic solvents (according to: Re, […]., Yang, M., & Rice, E. C. (1999) Antioxidant activity applying an improved ABTS radical cation decolorisation assay. Free Radical Biology and Medicine, 26, 1231-1237). The absorbance values measured after six minutes are used. The percentage of reduced ABTS is plotted against the concentration of the active ingredient (ASG I from Example 1 or trolox), and the slope of the lines is determined. In order to determine the TEAC value of ASG I, […].

For series [7] the following is noted: no shift in absorbance of the complex induced by N3^−.
Series [8] is described as follows: Storage stability / hydrolysis of ASG I in EtOH:H2O solution. The series is classed as physicochemical. Here is the method:
The reducing action of each substance (DPPH test) as a function of time is investigated and expressed as the amount of substance in mg required to inhibit 1 mmol of the DPPH free radical (FIG. 1).
Under storage conditions (90 days at 40° C., 1 mol-percent solution in EtOH:H2O), only 50% of the initial concentration of ASG I is retained after 30 days.

The conditions of series [9]: test described in Gan, Seib 1998; cited from earlier work.

≈ marks a conversion by molar mass, not a printed value. Entries after “also recorded” stand apart in the source; their conditions may differ. Some results are limits rather than exact numbers.

A word on the % inhibition: it is the percentage by which the read-out fell short of the control. As a reminder, the IC50 is the point on the concentration scale where inhibition reaches its midpoint. A higher IC50 goes with a need for much substance.

In turn, `O=C1O[C@H]([C@@H](O)COC(=O)c2cccc(O)c2)C(O)=C1O` [Substance 6, L-ascorbyl 6-O-(3-hydroxy)benzoate] returned a DPPH free-radical scavenging in series [1] of 193 mg.

As to `CCCCCCCCCCCCCCCC(=O)OC[C@H](O)[C@H]1OC(=O)C(O)=C1O` [Ascorbyl palmitate, 6-ascorbyl palmitate, reference compound], the DPPH free-radical scavenging in [1] was 211 mg. Moreover, the Protection factor in [2] (substance added pure) is given as 2.01. Also, in series [3], the “antioxidative action after storage (DPPH test)” value is “lose their antioxidative action”.

As for `Cc1c(C)c2c(c(C)c1O)CCC(C)(CCCC(C)CCCC(C)CCCC(C)C)O2` (centres unmarked) [Tocopherol, reference compound], in series [1], the “AE (×10^−3)” value is 64.1 ×10^−3 and the TEC50 was <60 min. Also, in series [4], the “Standardised to tocopherol (relative antioxidative efficiency, RAE)” value was determined as 1.00; the AE/20 min is on record as 0.0242; the “% inhibition” value is on record as 94.7%.

`O=c1c(O)c(-c2ccc(O)c(O)c2)oc2cc(O)cc(O)c12` [3,5,7,3′,4′-Pentahydroxyflavone, reference compound]: in series [1], the “AE (×10^−3)” value is given as 83 ×10^−3 and the TEC50 was 120 min.

With `O=C1O[C@H]([C@@H](O)COC(=O)c2ccc(O)cc2)C(O)=C1O` [Substance 4, L-ascorbyl 6-O-(4-hydroxy)benzoate], in series [1], the DPPH free-radical scavenging was found to be 185 mg and the “antioxidative action (DPPH test), in words” value is listed as “virtually the same reducing action as vitamin C”.

Turning to `O=C1O[C@H]([C@@H](O)CO)C([O-])=C1OP(=O)([O-])[O-].O=C1O[C@H]([C@@H](O)CO)C([O-])=C1OP(=O)([O-])[O-].[Mg+2].[Mg+2].[Mg+2]` [MAP, magnesium ascorbyl phosphate, reference compound], it took 33.1 mM to reach half-maximal inhibition against tyrosinase (IC50). Moreover, in series [1], the DPPH free-radical scavenging is listed as >1000 mg.

For the compound `COc1cc(C(=O)OC[C@H](O)[C@H]2OC(=O)C(O)=C2O)cc(OC)c1O` [Substance 2, L-ascorbyl 6-O-(4-hydroxy-3,5-dimethoxy)benzoate], in [1], the DPPH free-radical scavenging came out at 185 mg and the “antioxidative action (DPPH test), in words” value is “virtually the same reducing action as vitamin C”.

On to `O=C1O[C@H]([C@@H](O)CO)C(O)=C1O` [Vitamin C, ascorbic acid, reference compound], for which the “IC50” value in [5] was found to be 25.5 µg/mL (≈ 145 µM). Further, in series [1], the DPPH free-radical scavenging amounted to 102 mg, the “AE (×10^−3)” value is listed as 61.72 ×10^−3 and the TEC50 was <60 min. The compound further yielded a TEAC in [6] of 1. In series [3], the “antioxidative action after storage (DPPH test)” value was “lose their antioxidative action”. The compound further had a Lipid test in series [4] of 0.09.

For `COc1cccc(C(=O)OC[C@H](O)[C@H]2OC(=O)C(O)=C2O)c1` [Substance 7, L-ascorbyl 6-O-(3-methoxy)benzoate], the DPPH free-radical scavenging in series [1] is recorded as >1000 mg.

In series [6], `O=C(O)c1cc(O)c(O)c(O)c1` [Gallic acid, reference compound] gave a TEAC of 2.76. Also, the Lipid test in series [4] was 0.37.

As to `O=C1O[C@H]([C@@H](O)COC(=O)c2ccc(O)c(O)c2)C(O)=C1O` [Substance 3, L-ascorbyl 6-O-(3,4-dihydroxy)benzoate], in [1], the DPPH free-radical scavenging was 56 mg and the “antioxidative action (DPPH test), in words” value is listed as “great antioxidative action”.

As to `COc1ccc(C(=O)OC[C@H](O)[C@H]2OC(=O)C(O)=C2O)cc1` [Substance 5, L-ascorbyl 6-O-(4-methoxy)benzoate], in [1], the DPPH free-radical scavenging is given as 161 mg and the “antioxidative action (DPPH test), in words” value was “virtually the same reducing action as vitamin C”.

`O=C1O[C@H]([C@@H](O)COC(=O)c2cc(O)c(O)c(O)c2)C(O)=C1O` [ASG I, L-ascorbyl 6-gallate] returned an IC50 on tyrosinase of 0.109 mM. Also, the “IC50” value in [5] was 9.3 µg/mL (≈ 28.3 µM). The “complex formation with Fe^3+” value in series [7] was “strong complex-forming properties”. In series [1], the DPPH free-radical scavenging is reported as 54 mg; the “AE (×10^−3)” value is reported as 69.4 ×10^−3; the “antioxidative action (DPPH test), in words” value is given as “significantly greater antioxidative action than vitamin C or derivatives thereof”; the TEC50 was 180 min. In series [6], the TEAC was found to be 3.65. Besides, the initial concentration retained in series [8] (1 mol-percent solution in EtOH:H2O, 40° C., after 30 days) amounted to 50%. Besides, the “stability, in words” value in series [8] (pure substance versus aqueous solution) is given as “stable as the pure substance; also recorded: undergo hydrolysis in aqueous solution”. Besides, the Protection factor in series [2] (dissolved in ethanol) is 3.07. The compound also registered a Protection factor in series [2] (substance added pure) of 1.22. For the same compound, in [2] (pure substance in soya oil, Rancimat test), the “solubility in soya oil” value is listed as “only dissolves partially”. The “antioxidative action after storage (DPPH test)” value in series [3] was “retained”. Further, in [4], the “Standardised to tocopherol (relative antioxidative efficiency, RAE)” value is listed as 0.69; the AE/20 min is on record as 0.1594; the Lipid test came to 0.69; the “% inhibition” value was 65.1%. Moreover, the “activity relative to tocopherol” value in [4] (RAE expressed as percent of the activity of tocopherol) was 69%. Also, the “effectiveness as antioxidant, in words” value in series [9] is on record as “less effective than propyl gallate, but more effective than L-ascorbic acid or L-ascorbyl palmitate”.

For the compound `Cc1c(C)c2c(c(C)c1O)CCC(C)(C(=O)O)O2` (centres unmarked) [Trolox], in series [5], the “IC50” value was determined as 388 µg/mL (≈ 1550 µM).

`Cc1c(C)c2c(c(C)c1O)CCC(C)(CCCC(C)CCCC(C)CCCC(C)C)O2` (centres unmarked) [Vitamin E, reference compound] yielded a Protection factor in [2] (substance added pure) of 0.94.

The values are drawn from patent publication US20060039937A1, “Composition having antioxidant properties” (priority 2003, published 2006).
